Measurements reported in DBAASP.
Converted amounts (≈) assume the structure as drawn. “And” between values parts separate entries of the source, which are not always exact repeats. Equal entries are not always repeated. Blank lines part the entries; values can stand above or below the compound they belong to.

Experiments:
Test in all cases: ≥ marks a high value that may be exact or a test limit, other limits are often not marked, values filed in µg/mL are converted to µM
Escherichia coli BW25113 = test system: Escherichia coli BW25113
Escherichia coli = test system: Escherichia coli
Listeria innocua = test system: Listeria innocua
Micrococcus luteus A270 = test system: Micrococcus luteus A270
Micrococcus luteus = test system: Micrococcus luteus
[1] = test system: Salmonella enterica subsp. enterica serovar Enteritidis
Staphylococcus aureus = test system: Staphylococcus aureus
[2] = test system: Candida albicans NCYC 1467
[3] = test system: Enterococcus faecalis NCTC 12697
[4] = test system: Escherichia coli NCTC 10418
[5] = test system: Klebsiella pneumoniae ATCC 43816
[6] = test system: Pseudomonas aeruginosa ATCC 27853
[7] = test system: Staphylococcus aureus NCTC 10788
[8] = test system: Staphylococcus aureus NCTC 12493
Aeromonas hydrophila = test system: Aeromonas hydrophila
Vibrio harveyi = test system: Vibrio harveyi
[9] = test system: Bacillus subtilis ATCC 62037
[10] = test system: Candida albicans ATCC 10231
[11] = test system: Cryptococcus neoformans ATCC 34881
[12] = test system: Escherichia coli ATCC 27325
[13] = test system: Pseudomonas putida ATCC 17426
[14] = test system: Saccharomyces cerevisiae ATCC 44774
[15] = test system: Salmonella enterica subsp. enterica serovar Enteritidis ATCC 13076
[16] = test system: Staphylococcus aureus ATCC 15752
[17] = test system: Streptococcus mutans ATCC 25175
[18] = test system: Staphylococcus aureus ATCC BAA-1556

- MIC (Escherichia coli BW25113): 8 µM (≈ 18.6 µg/mL)
Compound: CC[C@H](C)[C@H](NC(=O)[C@@H]1CCCN1C(=O)[C@H](Cc1c[nH]c2ccccc12)NC(=O)[C@H](CCCN=C(N)N)NC(=O)[C@H](Cc1c[nH]c2ccccc12)NC(=O)[C@@H](N)CCCN=C(N)N)C(=O)N[C@@H](CCCN=C(N)N)C(=O)N[C@@H](CCCN=C(N)N)C(=O)N1CCC[C@H]1C(=O)N1CCC[C@H]1C(=O)N[C@H](C(=O)N[C@@H](CCCN=C(N)N)C(=O)N1CCC[C@H]1C(=O)N1CCC[C@H]1C(=O)N[C@@H](Cc1c[nH]c2ccccc12)C(=O)N[C@@H](Cc1ccc(O)cc1)C(=O)N1CCC[C@H]1C(=O)O)[C@@H](C)CC [RWRWPIRRPPIRPPWYP]

- MIC (Escherichia coli): 8 µM (≈ 8.43 µg/mL)
- MIC (Listeria innocua): 2 µM (≈ 2.11 µg/mL)
- MIC (Micrococcus luteus A270): 15 µM (≈ 15.8 µg/mL)
- MIC (Micrococcus luteus): 15 µM (≈ 15.8 µg/mL)
- MIC [1]: 8 µM and 7.5 µM
- MIC (Staphylococcus aureus): 2 µM (≈ 2.11 µg/mL)
Compound: CC(C)C[C@H](NC(=O)[C@@H](NC(=O)[C@@H](NC(=O)[C@@H](N)CO)[C@@H](C)O)C(C)C)C(=O)N[C@H](C(=O)N[C@@H](CO)C(=O)N[C@@H](CCCCN)C(=O)N[C@@H](Cc1ccc(O)cc1)C(=O)N[C@@H](CCCN=C(N)N)C(=O)O)[C@@H](C)O [STVLTSKYR]

- MIC [2]: 8 µM (≈ 15.6 µg/mL)
- MIC [3]: ≥ 256 µM
- MIC [4]: 16 µM (≈ 31.2 µg/mL)
- MIC [5]: ≥ 32 µM
- MIC [6]: 64 µM (≈ 125 µg/mL)
- MIC [7]: 8 µM (≈ 15.6 µg/mL)
- MIC [8]: 8 µM (≈ 15.6 µg/mL)
Compound: CC[C@H](C)[C@@H]1NC(=O)[C@H](C)NC(=O)[C@@H](NC(=O)[C@H](Cc2ccccc2)NC(=O)[C@@H](NC(=O)[C@H](CCCCN)NC(=O)[C@H](Cc2c[nH]c3ccccc23)NC(=O)[C@@H]2CCCN2C(=O)[C@H](CC(C)C)NC(=O)[C@H](Cc2ccccc2)NC(=O)[C@H](CCCCN)NC(=O)[C@@H](N)CCCCN)[C@@H](C)CC)CSSC[C@@H](C(=O)O)NC(=O)[C@H](CCCCN)NC(=O)[C@H](CCCCN)NC(=O)[C@H]([C@@H](C)O)NC1=O [KKFLPWKIFCAITKKC]

- MIC (Escherichia coli BW25113): 12 µM (≈ 27.1 µg/mL)
Compound: CC[C@H](C)[C@H](NC(=O)[C@@H]1CCCN1C(=O)[C@H](CCCN=C(N)N)NC(=O)[C@H](CCCN=C(N)N)NC(=O)[C@H](Cc1ccccc1)NC(=O)[C@@H](N)CCCN=C(N)N)C(=O)N[C@@H](CCCN=C(N)N)C(=O)N[C@@H](CCCN=C(N)N)C(=O)N1CCC[C@H]1C(=O)N1CCC[C@H]1C(=O)N[C@H](C(=O)N[C@@H](CCCN=C(N)N)C(=O)N1CCC[C@H]1C(=O)N1CCC[C@H]1C(=O)N[C@@H](Cc1c[nH]c2ccccc12)C(=O)N[C@@H](Cc1ccc(O)cc1)C(=O)N1CCC[C@H]1C(=O)O)[C@@H](C)CC [RFRRPIRRPPIRPPWYP]

- MIC [2]: ≥ 32 µM
- MIC [3]: 16 µM (≈ 33.8 µg/mL)
- MIC [4]: ≥ 512 µM
- MIC [5]: ≥ 512 µM
- MIC [6]: > 512 µM
- MIC [7]: 2 µM (≈ 4.22 µg/mL)
- MIC [8]: ≥ 64 µM
Compound: CC[C@H](C)[C@H](NC(=O)[C@H](C)NC(=O)[C@H](CO)NC(=O)[C@@H](NC(=O)[C@@H](NC(=O)[C@H](CCCCN)NC(=O)[C@@H]1CCCN1C(=O)[C@@H](NC(=O)[C@H](CC(C)C)NC(=O)[C@H](CO)NC(=O)[C@H](CC(C)C)NC(=O)[C@@H](N)Cc1ccccc1)[C@@H](C)CC)[C@@H](C)CC)[C@@H](C)CC)C(=O)N[C@@H](CO)C(=O)N[C@@H](C)C(=O)N[C@@H](CC(C)C)C(=O)N[C@H](C(=O)N[C@@H](CCCCN)C(=O)N[C@@H](Cc1cnc[nH]1)C(=O)N[C@@H](Cc1ccccc1)C(N)=O)[C@@H](C)CC [FLSLIPKIISAISALIKHF]

- MIC (Aeromonas hydrophila): 16 µM (≈ 38.5 µg/mL)
- MIC (Vibrio harveyi): ≥ 32 µM
Compound: CC[C@H](C)[C@H](NC(=O)[C@H](C)NC(=O)[C@H](CCCN=C(N)N)NC(=O)[C@H](Cc1cnc[nH]1)NC(=O)[C@@H](NC(=O)[C@H](C)NC(=O)[C@H](CCCN=C(N)N)NC(=O)[C@@H](NC(=O)CNC(=O)[C@H](Cc1cnc[nH]1)NC(=O)[C@H](CO)NC(=O)[C@@H](NC(=O)[C@H](Cc1c[nH]c2ccccc12)NC(=O)CNC(=O)[C@@H](NC(=O)[C@@H](NC(=O)[C@H](C)NC(=O)[C@H](Cc1cnc[nH]1)NC(=O)[C@@H](NC(=O)[C@@H](N)Cc1ccccc1)[C@@H](C)CC)[C@@H](C)CC)[C@@H](C)CC)[C@@H](C)CC)C(C)C)[C@@H](C)CC)C(=O)N[C@@H](Cc1cnc[nH]1)C(N)=O [FIHAIIGWISHGVRAIHRAIH]

- MIC [9]: 0.442 µM (≈ 1 µg/mL)
- MIC [10]: 0.221 µM (≈ 0.5 µg/mL)
- MIC [11]: 0.221 µM (≈ 0.5 µg/mL)
- MIC [12]: 0.442 µM (≈ 1 µg/mL)
- MIC [13]: 0.442 µM (≈ 1 µg/mL)
- MIC [14]: 0.221 µM (≈ 0.5 µg/mL)
- MIC [15]: 0.442 µM (≈ 1 µg/mL)
- MIC [16]: 0.884 µM (≈ 2 µg/mL)
- MIC [17]: 0.442 µM (≈ 1 µg/mL)
Compound: CC[C@H](C)[C@H](NC(=O)CNC(=O)[C@H](CCCCN)NC(=O)[C@H](CCCCN)NC(=O)[C@H](CCC(N)=O)NC(=O)[C@H](CC(C)C)NC(=O)[C@H](CCCN=C(N)N)NC(=O)[C@H](CC(C)C)NC(=O)[C@H](CC(C)C)NC(=O)[C@H](CCCN=C(N)N)NC(=O)[C@H](CCCN=C(N)N)NC(=O)[C@H](CC(C)C)NC(=O)[C@H](CC(C)C)NC(=O)[C@H](CCCN=C(N)N)NC(=O)[C@H](CCSC)NC(=O)[C@H](C)NC(=O)[C@H](CCCCN)NC(=O)[C@@H]1CCCN1C(=O)[C@H](C)N)C(=O)O [APKAMRLLRRLLRLQKKGI]

- MIC (Escherichia coli BW25113): 8 µM (≈ 19 µg/mL)
Compound: CC[C@H](C)[C@H](NC(=O)[C@@H]1CCCN1C(=O)[C@H](CCCN=C(N)N)NC(=O)[C@H](CCCN=C(N)N)NC(=O)[C@H](Cc1ccccc1)NC(=O)[C@@H](N)CCCN=C(N)N)C(=O)N[C@@H](CCCN=C(N)N)C(=O)N[C@@H](CCCN=C(N)N)C(=O)N[C@@H](CCCN=C(N)N)C(=O)N1CCC[C@H]1C(=O)N[C@H](C(=O)N[C@@H](CCCN=C(N)N)C(=O)N1CCC[C@H]1C(=O)N1CCC[C@H]1C(=O)N[C@@H](Cc1c[nH]c2ccccc12)C(=O)N[C@@H](Cc1ccc(O)cc1)C(=O)N[C@@H](CCCN=C(N)N)C(=O)O)[C@@H](C)CC [RFRRPIRRRPIRPPWYR]

- MIC (Escherichia coli): 71 µM (≈ 156 µg/mL)
- MIC (Listeria innocua): ≥ 71 µM
- MIC (Micrococcus luteus A270): ≥ 71 µM
- MIC [1]: ≥ 35 µM
Compound: CC(C)C[C@H](NC(=O)[C@H](C)NC(=O)[C@H](CC(N)=O)NC(=O)[C@H](C)NC(=O)[C@@H](NC(=O)CNC(=O)[C@H](C)NC(=O)[C@@H](NC(=O)[C@@H](NC(=O)[C@H](CCCCN)NC(=O)[C@H](CCC(N)=O)NC(=O)[C@H](Cc1ccccc1)NC(=O)[C@H](CC(=O)O)NC(=O)[C@H](C)NC(=O)[C@@H](N)CCC(N)=O)C(C)C)C(C)C)C(C)C)C(=O)N[C@@H](C)C(=O)N[C@@H](Cc1cnc[nH]1)C(=O)N[C@@H](CCCN=C(N)N)C(=O)N[C@@H](Cc1ccc(O)cc1)C(=O)N[C@@H](Cc1cnc[nH]1)C(=O)O [QADFQKVVAGVANALAHRYH]

- MIC [18]: ≥ 100 µM
Compound: CC(C)C[C@H](NC(=O)[C@H](CC(C)C)NC(=O)[C@H](CC(C)C)NC(=O)[C@H](CCCCN)NC(=O)[C@H](CC(C)C)NC(=O)[C@H](CCCCN)NC(=O)[C@H](CC(C)C)NC(=O)[C@H](CC(C)C)NC(=O)[C@@H](N)CC(C)C)C(N)=O [LLLKLKLLL]
